In US12458021B2, “Microbiocidal derivatives” (SYNGENTA CROP PROTECTION AG, priority 2019, dated 2025):

Experiments:
[1] = tested on: Blumeria graminis f. sp. tritici (Erysiphe graminis f. sp. tritici); test: Blumeria graminis f. sp. tritici / wheat / leaf disc preventative (powdery mildew on wheat); format: in vivo; settings: foliar, wheat leaf segments cv. Kanzler, inoculated 1 day after application, assessed 6-8 days after application, read-out: control of Blumeria graminis f. sp. tritici (percent disease control compared to untreated)
Source text: Example B4: Blumeria graminis f. sp. tritici (Erysiphe graminis f. sp. tritici)/Wheat/Leaf Disc Preventative (Powdery Mildew on Wheat) Wheat leaf segments cv. Kanzler are placed on agar in a multiwell plate (24-well format) and sprayed with the formulated test compound diluted in water. The leaf disks are inoculated by shaking powdery mildew infected plants above the test plates 1 day after application. […] […]-192.

Pyrenophora teres = Pyrenophora teres / barley / leaf disc preventative (net blotch); format: in vivo; settings: foliar, barley leaf segments cv. Hasso, inoculated 2 days after application, assessed 5-7 days after application, read-out: control of Pyrenophora teres (disease control compared to untreated)
Procedure, shortened: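 Barley cv. Hasso leaf discs on agar were sprayed with diluted formulated compound, then inoculated with spore suspension 2 days later. Incubation at 20 °C, 65% rh, 12 h light/dark; disease control versus untreated assessed 5-7 days after application.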

Sclerotinia sclerotiorum = Sclerotinia sclerotiorum / liquid culture (cottony rot); format: cell-based; settings: PDB potato dextrose broth, mycelia fragments, 24° C., 3-4 days after application, read-out: control of Sclerotinia sclerotiorum (inhibition of growth, photometric)
Experimental: Example B14: Sclerotinia sclerotiorum/Liquid Culture (Cottony Rot) Mycelia fragments of a newly grown liquid culture of the fungus are directly mixed into nutrient broth (PDB potato dextrose broth). After placing a (DMSO) solution of test compound into a microtiter plate (96-well format) the nutrient broth containing the fungal material is added. The test plates are incubated at 24° C. and the inhibition of growth is determined photometrically 3-4 days after application.

[2] = tested on: Glomerella lagenarium (Colletotrichum lagenarium); test: Glomerella lagenarium (Colletotrichum lagenarium) / liquid culture (anthracnose); format: cell-based; settings: Colletotrichum orbiculare, PDB potato dextrose broth, 24° C., 3-4 days after application, read-out: control of Glomerella lagenarium (inhibition of growth, photometric)
Procedure, shortened: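 Fungal growth inhibition measured photometrically 3-4 days post-application at 24° C. Spores were mixed directly into potato dextrose broth and dispensed onto test compound supplied in DMSO.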

[3] = tested on: Monographella nivalis (Microdochium nivale); test: Monographella nivalis (Microdochium nivale) / liquid culture (foot rot cereals); format: cell-based; settings: PDB potato dextrose broth, 24° C., 4-5 days after application, read-out: control of Monographella nivalis (inhibition of growth, photometric)
Procedure, shortened: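 Growth inhibition measured by photometry 4-5 days post-application at 24° C. Compound was dispensed as DMSO solution, then PDB broth containing conidia from cryogenic storage was added.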

Alternaria solani = Alternaria solani / tomato / leaf disc (early blight); format: in vivo; settings: foliar, tomato leaf disks cv. Baby, inoculated 2 days after application, assessed 5-7 days after application, read-out: control of Alternaria solani (percent disease control compared to untreated)
Experimental: Example B1: Alternaria solani/Tomato/Leaf Disc (Early Blight) Tomato leaf disks cv. Baby are placed on agar in multiwell plates (24-well format) and sprayed with the formulated test compound diluted in water. The leaf disks are inoculated with a spore suspension of the fungus 2 days after application. The inoculated leaf disks are incubated at 23° C./21° C. […] […]-185.

[4] = tested on: Magnaporthe grisea (Pyricularia oryzae); test: whole plant or invertebrate; format: in vivo; settings: foliar, read-out: control of Magnaporthe grisea (percent disease control compared to untreated)
[5] = tested on: Mycosphaerella graminicola (Septoria tritici); test: Mycosphaerella graminicola (Septoria tritici) / liquid culture (Septoria blotch); format: cell-based; settings: Zymoseptoria tritici, PDB potato dextrose broth, 24° C., 4-5 days after application, read-out: control of Mycosphaerella graminicola (inhibition of growth, photometric)
Procedure, shortened: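 Fungal growth inhibition was read photometrically 4-5 days after application. Compound was dosed from a DMSO solution into liquid cultures of spores in potato dextrose broth, incubated at 24° C.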

[6] = tested on: Mycosphaerella arachidis (Cercospora arachidicola); test: Mycosphaerella arachidis (Cercospora arachidicola) / liquid culture (early leaf spot); format: cell-based; settings: PDB potato dextrose broth, 24° C., 4-5 days after application, read-out: control of Mycosphaerella arachidis (inhibition of growth, photometric)
Procedure, shortened: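 Conidia from cryogenic storage suspended in potato dextrose broth and added to compound in DMSO. Incubation at 24° C; growth inhibition read photometrically 4-5 days after application.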

[7] = tested on: Phaeosphaeria nodorum (Septoria nodorum); test: Phaeosphaeria nodorum (Septoria nodorum) / wheat / leaf disc preventative (glume blotch); format: in vivo; settings: Parastagonospora nodorum, foliar, wheat leaf segments cv. Kanzler, inoculated 2 days after application, assessed 5-7 days after application, read-out: control of Phaeosphaeria nodorum (percent disease control compared to untreated)
Procedure, shortened: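 Wheat cv. Kanzler leaf discs on agar were sprayed with formulated compound diluted in water and inoculated with spores 2 days later. Discs were kept at 20° C, 75% rh, 12 h light/dark; percent disease control versus untreated was scored 5-7 days after application.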

[8] = tested on: Botryotinia fuckeliana (Botrytis cinerea); test: Botryotinia fuckeliana (Botrytis cinerea) / liquid culture (gray mould); format: cell-based; settings: Vogels broth, 24° C., 3-4 days after application, read-out: control of Botryotinia fuckeliana (inhibition of growth, photometric)
Experimental: Example B2: Botryotinia fuckeliana (Botrytis cinerea)/Liquid Culture (Gray Mould) Conidia of the fungus from cryogenic storage are directly mixed into nutrient broth (Vogels broth). After placing a (DMSO) solution of test compound into a microtiter plate (96-well format), the nutrient broth containing the fungal spores is added. The test plates are incubated at 24° C. and the inhibition of growth is determined photometrically 3-4 days after application. […] […]-190.

[9] = tested on: Puccinia recondita f. sp. tritici; test: Puccinia recondita f. sp. tritici / wheat / leaf disc preventative (brown rust); format: in vivo; settings: foliar, wheat leaf segments cv. Kanzler, inoculated 1 day after application, assessed 7-9 days after application, read-out: control of Puccinia recondita f. sp. tritici, preventative (percent disease control compared to untreated)
Procedure, shortened: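 Wheat leaf segments (cv. Kanzler) on agar were sprayed with formulated compound, then inoculated with spores 1 day later. Segments were incubated at 19 °C, 75% rh with 12 h light/dark. Percent disease control versus untreated was scored 7–9 days after application.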

COc1cnc(Nc2cc(F)cc(F)c2)nc1C(=O)NC1CCC1(C)C (stereo not drawn) [Compound P-10, 2-(3,5-difluoroanilino)-N-(2,2-dimethylcyclobutyl)-5-methoxy-pyrimidine-4-carboxamide]
≥ 80%: pest or weed control at 200 ppm [1] | pest or weed control at 200 ppm (Pyrenophora teres) | inhibition at 20 ppm (Sclerotinia sclerotiorum) | inhibition at 20 ppm [2] | inhibition at 20 ppm [3] | pest or weed control at 200 ppm (Alternaria solani) | pest or weed control at 200 ppm [4] | inhibition at 20 ppm [5]

CC1(C)CCC1NC(=O)c1nc(Nc2cnsc2)ccc1O (stereo not drawn) [Compound P-19, N-(2,2-dimethylcyclobutyl)-3-hydroxy-6-(isothiazol-4-ylamino)pyridine-2-carboxamide]
≥ 80%: inhibition at 20 ppm [6] | inhibition at 20 ppm (Sclerotinia sclerotiorum) | inhibition at 20 ppm [2] | inhibition at 20 ppm [3] | inhibition at 20 ppm [5]

CCOc1ccc(Nc2cc(F)cc(F)c2)nc1C(=O)NC1CCC1(C)C (stereo not drawn) [Compound P-44, 6-(3,5-difluoroanilino)-N-(2,2-dimethylcyclobutyl)-3-ethoxy-pyridine-2-carboxamide]
≥ 80%: pest or weed control at 200 ppm [1] | pest or weed control at 200 ppm (Pyrenophora teres) | pest or weed control at 200 ppm [7] | inhibition at 20 ppm [6] | inhibition at 20 ppm (Sclerotinia sclerotiorum) | inhibition at 20 ppm [2] | inhibition at 20 ppm [3] | pest or weed control at 200 ppm (Alternaria solani) | pest or weed control at 200 ppm [4] | inhibition at 20 ppm [5]

COc1ccc(Nc2cc(F)cc(F)c2)nc1C(=O)NCC1(C)CCOC2(CCC2)C1 (stereo not drawn) [Compound P-67, 6-(3,5-difluoroanilino)-3-methoxy-N-[(8-methyl-5-oxaspiro[3.5]nonan-8-yl)methyl]pyridine-2-carboxamide]
≥ 80%: pest or weed control at 200 ppm [1] | inhibition at 20 ppm [6] | inhibition at 20 ppm (Sclerotinia sclerotiorum) | inhibition at 20 ppm [2] | inhibition at 20 ppm [3] | pest or weed control at 200 ppm (Alternaria solani) | pest or weed control at 200 ppm [4] | inhibition at 20 ppm [5]

COc1ccc(Nc2cc(F)cc(F)c2)nc1C(=O)NCCc1ccc(OC(F)(F)F)cc1 [Compound P-74, 6-(3,5-difluoroanilino)-3-methoxy-N-[2-[4-(trifluoromethoxy)phenyl]ethyl]pyridine-2-carboxamide]
≥ 80%: pest or weed control at 200 ppm [1] | inhibition at 20 ppm [6] | inhibition at 20 ppm (Sclerotinia sclerotiorum) | inhibition at 20 ppm [2] | inhibition at 20 ppm [3] | pest or weed control at 200 ppm (Alternaria solani) | pest or weed control at 200 ppm [4] | inhibition at 20 ppm [5]

COc1cc(Nc2cc(F)cc(F)c2)nc(C(=O)NC(C)(C)C)c1 [Compound P-116, N-tert-butyl-6-(3,5-difluoroanilino)-4-methoxy-pyridine-2-carboxamide]
≥ 80%: pest or weed control at 200 ppm (Pyrenophora teres) | pest or weed control at 200 ppm [7] | inhibition at 20 ppm [8] | inhibition at 20 ppm [2]

COc1ccc(Nc2cc(F)cc(F)c2)nc1C(=O)NC1(C)CCOC1 (stereo not drawn) [Compound P-122, 6-(3,5-difluoroanilino)-3-methoxy-N-(3-methyltetrahydrofuran-3-yl)pyridine-2-carboxamide]
≥ 80%: pest or weed control at 200 ppm [1] | inhibition at 20 ppm (Sclerotinia sclerotiorum) | inhibition at 20 ppm [2] | inhibition at 20 ppm [3] | pest or weed control at 200 ppm [4] | inhibition at 20 ppm [5]

COc1ccc(Nc2cc(F)cc(F)c2)nc1C(=O)NC1(C#N)CCCC1 [Compound P-123, N-(1-cyanocyclopentyl)-6-(3,5-difluoroanilino)-3-methoxy-pyridine-2-carboxamide]
≥ 80%: pest or weed control at 200 ppm [1] | pest or weed control at 200 ppm [9] | inhibition at 20 ppm (Sclerotinia sclerotiorum) | inhibition at 20 ppm [2] | inhibition at 20 ppm [3] | pest or weed control at 200 ppm [4] | inhibition at 20 ppm [5]

COc1ccc(Nc2cc(F)cc(C#N)c2)nc1C(=O)NC(C)(C)C [Compound P-147, N-tert-butyl-6-(3-cyano-5-fluoro-anilino)-3-methoxy-pyridine-2-carboxamide]
≥ 80%: pest or weed control at 200 ppm [1] | pest or weed control at 200 ppm (Pyrenophora teres) | pest or weed control at 200 ppm [9] | inhibition at 20 ppm (Sclerotinia sclerotiorum) | inhibition at 20 ppm [2] | inhibition at 20 ppm [3] | pest or weed control at 200 ppm (Alternaria solani) | pest or weed control at 200 ppm [4] | inhibition at 20 ppm [5]

COc1ccc(Nc2ccc3occc3c2)nc1C(=O)NC(C)(C)C [Compound P-157, 6-(benzofuran-5-ylamino)-N-tert-butyl-3-methoxy-pyridine-2-carboxamide]
≥ 80%: inhibition at 20 ppm (Sclerotinia sclerotiorum) | inhibition at 20 ppm [2] | inhibition at 20 ppm [3] | inhibition at 20 ppm [5]

COc1ccc(Nc2cc(F)cc(F)c2)nc1C(=O)NC(C)(C)C(C)(C)C [Compound P-171, 6-(3,5-difluoroanilino)-3-methoxy-N-(1,1,2,2-tetramethylpropyl)pyridine-2-carboxamide]
≥ 80%: pest or weed control at 200 ppm [1] | pest or weed control at 200 ppm (Pyrenophora teres) | pest or weed control at 200 ppm [7] | inhibition at 20 ppm [6] | inhibition at 20 ppm [8] | pest or weed control at 200 ppm [9] | inhibition at 20 ppm [2] | inhibition at 20 ppm [3] | pest or weed control at 200 ppm (Alternaria solani) | inhibition at 20 ppm [5]

COc1ccc(Nc2cc(F)cc(F)c2)nc1C(=O)NC(C)(C)C(C)C [Compound P-172, 6-(3,5-difluoroanilino)-3-methoxy-N-(1,1,2-trimethylpropyl)pyridine-2-carboxamide]
≥ 80%: pest or weed control at 200 ppm [1] | pest or weed control at 200 ppm [7] | inhibition at 20 ppm [6] | inhibition at 20 ppm [8] | pest or weed control at 200 ppm [9] | inhibition at 20 ppm [2] | inhibition at 20 ppm [3] | pest or weed control at 200 ppm (Alternaria solani) | inhibition at 20 ppm [5]

COc1ccc(Nc2cc(F)cc(F)c2)nc1C(=O)NC1(C(C)(C)C)CCC1 [Compound P-180, N-(1-tert-butylcyclobutyl)-6-(3,5-difluoroanilino)-3-methoxy-pyridine-2-carboxamide]
≥ 80%: pest or weed control at 200 ppm [1] | pest or weed control at 200 ppm (Pyrenophora teres) | pest or weed control at 200 ppm [7] | inhibition at 20 ppm [6] | pest or weed control at 200 ppm [9] | inhibition at 20 ppm (Sclerotinia sclerotiorum) | inhibition at 20 ppm [2] | inhibition at 20 ppm [3] | pest or weed control at 200 ppm (Alternaria solani) | pest or weed control at 200 ppm [4] | inhibition at 20 ppm [5]
